One experiment deals with T1, mouse GIRK1/2 (Mus musculus, UniProt P48542+P63250).
T1 construct: expressed in transfected cells; host or cells: 293T cells, transient calcium phosphate transfection, pCMV6 plasmid
T1 sequence (P63250 1-501): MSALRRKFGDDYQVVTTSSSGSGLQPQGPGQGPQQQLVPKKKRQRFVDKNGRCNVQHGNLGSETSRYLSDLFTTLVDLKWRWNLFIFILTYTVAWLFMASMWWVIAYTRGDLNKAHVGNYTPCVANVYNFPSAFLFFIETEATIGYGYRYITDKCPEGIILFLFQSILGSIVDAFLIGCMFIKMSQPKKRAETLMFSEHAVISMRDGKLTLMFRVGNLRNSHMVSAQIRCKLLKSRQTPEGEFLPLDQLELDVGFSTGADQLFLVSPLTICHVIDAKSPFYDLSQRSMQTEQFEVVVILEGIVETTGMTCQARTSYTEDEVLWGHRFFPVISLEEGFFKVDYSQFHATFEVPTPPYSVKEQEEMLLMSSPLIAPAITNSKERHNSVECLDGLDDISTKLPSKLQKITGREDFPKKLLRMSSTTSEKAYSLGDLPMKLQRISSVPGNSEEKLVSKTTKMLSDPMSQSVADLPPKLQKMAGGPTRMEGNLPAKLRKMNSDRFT
T1 sequence (P48542 1-425): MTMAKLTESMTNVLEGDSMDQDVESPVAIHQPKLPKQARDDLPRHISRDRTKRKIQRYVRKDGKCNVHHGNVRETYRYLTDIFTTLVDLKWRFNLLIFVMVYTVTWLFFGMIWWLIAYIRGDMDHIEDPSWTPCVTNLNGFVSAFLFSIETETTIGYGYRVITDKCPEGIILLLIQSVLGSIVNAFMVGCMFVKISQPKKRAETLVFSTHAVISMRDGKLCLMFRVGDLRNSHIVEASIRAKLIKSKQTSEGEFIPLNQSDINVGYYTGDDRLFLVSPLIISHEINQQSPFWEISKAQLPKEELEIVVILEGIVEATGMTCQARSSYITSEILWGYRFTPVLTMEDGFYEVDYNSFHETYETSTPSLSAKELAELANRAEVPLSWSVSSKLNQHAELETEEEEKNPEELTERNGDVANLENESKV
Put plainly: Whole-cell patch-clamp of GIRK1/2 in transfected 293T cells. The class given is cell-based. The text has this:
The cDNAs for rat ROMK and mouse GIRK1, 2, and 4 were generously donated by Drs Mikio Hayashi (Kansai Medical University) and David Weaver (Vanderbilt University). The ROMK channels were stably expressed by a cell line, 208–4, which was transduced with lentiviral vectors coexpressing the channel and green fluorescent protein (GFP) as described previously. The GIRK genes, cloned in a pCMV6 plasmid (Origene Technologies Inc, Rockville, MD), were transiently expressed in 293T cells with calcium phosphate transfection. GIRK channel currents were recorded 24 h after transfection.
Cells grown on small cover glasses (3 × 18 mm) were placed in a recording chamber. Whole-cell currents were recorded in Tyrode solution using an Axopatch 200B amplifier (Axon Instruments, Foster City, CA) at 25°C. Tyrode solution contained (in mM): NaCl 140, KCl 5.4, NaH2PO4 0.33, CaCl2 2, MgCl2 1, HEPES 5, and glucose 5.5 (pH 7.4 adjusted with NaOH). […] Whole-cell currents were recorded 60 sec after the peptide application and those from 100 to 300 msec of the step pulses were averaged. […] Whole-cell conductance was calculated as the slope of the current-voltage (I-V) relationship from -140 mV to -100 mV and normalized to the initial value (0 μM TPN), in which BaCl2-resistant current was subtracted and indicted as a percentage.
For orientation: Patch clamp records ionic current or voltage across a cell membrane.

The target in a further experiment is T2, rat ROMK (Rattus norvegicus, UniProt P35560).
T2 construct: expressed in transfected cells; host or cells: 293T cell line 208-4 (lentiviral transduction, GFP coexpressed)
T2 sequence (P35560 1-391): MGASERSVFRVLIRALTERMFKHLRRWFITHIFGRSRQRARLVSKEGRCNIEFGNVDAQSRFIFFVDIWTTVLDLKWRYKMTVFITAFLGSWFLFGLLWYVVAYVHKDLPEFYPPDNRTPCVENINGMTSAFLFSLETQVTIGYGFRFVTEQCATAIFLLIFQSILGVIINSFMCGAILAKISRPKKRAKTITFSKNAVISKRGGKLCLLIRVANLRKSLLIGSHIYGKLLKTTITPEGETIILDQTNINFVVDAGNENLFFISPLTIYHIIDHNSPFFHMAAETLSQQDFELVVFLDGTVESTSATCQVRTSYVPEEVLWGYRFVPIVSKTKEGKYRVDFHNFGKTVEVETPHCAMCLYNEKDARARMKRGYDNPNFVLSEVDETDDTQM
Put plainly: Whole-cell patch-clamp of ROMK currents in 208–4 cells. The settings on record: for inhibition at 1 µM: blockade at 1 μM estimated from fitted Hill curve (four parameters), n = 3–6, read-out: Activity (ROMK channel blocking activity, percentage of blockade at 1 μM); for IC50: 25°C. The experiment is classed as cell-based. Summed up:
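ROMK stably expressed in 208–4 cells; GIRK transiently in 293T, recorded 24 h post-transfection; 25°C, Tyrode (high-K+ 50 mM for GIRK), K-aspartate/KCl pipette with 3 mM MgATP. Steps −150 to 10 mV from −70 mV; currents 60 s after peptide; conductance from I-V slope −140 to −100 mV, Ba2+-resistant current subtracted, normalized to 0 μM TPN.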

The structures appear in SMILES notation. Like-named read-outs stand apart in the source and are kept apart here. Bridge positions count the residues as written; N and C are the ends. Peptide text beside a SMILES is read from it.

Consider `CC[C@H](C)[C@@H]1NC(=O)[C@H](CCCNC(=N)N)NC(=O)[C@H](CCCNC(=N)N)NC(=O)[C@H](CC(N)=O)NC(=O)[C@@H]2CSSC[C@@H](C(=O)NCC(=O)N[C@@H](CCCCN)C(=O)N[C@@H](CCCCN)C(N)=O)NC(=O)[C@H](CCCCN)NC(=O)[C@H](CCCCN)NC(=O)[C@H](Cc3c[nH]c4ccccc34)NC(=O)[C@H](CSSC[C@H](NC(=O)[C@H](CC(C)C)NC(=O)[C@H](C)N)C(=O)N[C@@H](CC(N)=O)C(=O)N2)NC(=O)[C@H](CCC(N)=O)NC(=O)[C@H](Cc2c[nH]cn2)NC(=O)[C@@H]2CCCN2C(=O)[C@H]([C@@H](C)CC)NC1=O` [Peptide 2, TPN-RQ] (H-ALCNCNRRIIPHQCWKKCGKK-NH2; disulfide 3-14, 5-18), for which the IC50 was determined as 610 nM on mouse GIRK1/2 (293T cells transiently expressing mouse GIRK1/2, high K+ Tyrode solution (Fig 7), read-out: IC50, GIRK1/2 conductance); 240 nM at rat ROMK (peptide pre-treated with protein disulfide isomerase, 30 min, n = 4 (Fig 2F), read-out: IC50, ROMK current, PDI-treated peptide); 170 nM on rat ROMK (whole-cell conductance, 60 sec after application, n = 3 (Fig 2E), read-out: IC50, ROMK current). Also, the inhibition at 1 µM at rat ROMK (whole-cell conductance) was more than 80%.
For `CC[C@H](C)[C@@H]1NC(=O)[C@H](CCCNC(=N)N)NC(=O)[C@H](CC(N)=O)NC(=O)[C@@H]2CSSC[C@@H](C(=O)NCC(=O)N[C@@H](CCCCN)C(=O)N[C@@H](CCCCN)C(N)=O)NC(=O)[C@H](CCCCN)NC(=O)[C@H](CCCCN)NC(=O)[C@H](Cc3c[nH]c4ccccc34)NC(=O)[C@H](CSSC[C@H](NC(=O)[C@H](CC(C)C)NC(=O)[C@H](C)N)C(=O)N[C@@H](CC(N)=O)C(=O)N2)NC(=O)[C@H](CCC(N)=O)NC(=O)[C@H](CC(C)C)NC(=O)[C@@H]2CCCN2C(=O)[C@H]([C@@H](C)CC)NC(=O)[C@H]([C@@H](C)CC)NC1=O` [Peptide 3, TPN-LQ] (H-ALCNCNRIIIPLQCWKKCGKK-NH2; disulfide 3-14, 5-18; N-terminus and C-terminus assumed), the “difference in IC50, GIRK1/2 over ROMK” value on mouse GIRK1/2 (ratio of IC50 GIRK1/2 to IC50 ROMK) is recorded as 20.9 fold. The inhibition at 1 µM on rat ROMK (whole-cell conductance) is 60 to 80%.

The values are drawn from paper PMC7665585, “Antidepressive effect of an inward rectifier K^+ channel blocker peptide, tertiapin-RQ” (PLoS ONE, 2020).
